Laboratory results from patent US20220387466A1, “COMPOUNDS AND PHARMACEUTICAL COMPOSITIONS FOR PREVENTION AND/OR TREATMENT OF DYSBIOSIS AND ANTIBACTERIAL ANTIDOTES FOR MICROBIOME-PROTECTION” (priority 2019, published 2022).
≈ marks a conversion by molar mass, not a printed value. Entries after “also recorded” stand apart in the source; their conditions may differ.

Columns and labels:
B. vulgatus [1] = test: 8x8 checkerboard assay for anaerobic commensals (antibiotic vs antagonist); format: cell-based, Bacteroides vulgatus; settings: for rescue of B. vulgatus growth from erythromycin: combination with erythromycin
Description: (§1) Checkerboard assays for anaerobic commensals: Validated antagonists were further investigated in 8×8 checkerboard assays, where both antibiotics and antagonists were titrated against each other. Such assays were first performed for the commensals that were originally screened (i. e. B. vulgatus and B. uniformis—4 replicates) and later expanded towards 6 further gut microbes (B. caccae, B. fragilis NT, B. ovatus, B. thetaiotaomicron, P. copri, P. distasonis—2 replicates). For vertical gradients, 2-fold serial dilutions of the antagonists were prepared first in 100× in DMSO and diluted in MGAM as described above (section ‘Validation of microbiome-protective antagonists’). Horizontal antibiotic dilution series were freshly prepared in MGAM at 4× final concentration in equidistant concentration steps. Both, vertical and horizontal dilution series were combined (50 μl of the antagonist gradients (2×) and 25 μl of the antibiotic gradients (4×)) in 96 well plates. Plates were pre-reduced under anaerobic conditions overnight, inoculated with 25 μl of diluted overnight culture (at 4× starting OD) and sealed with breathable membrane (Breathe-Easy®). Bacterial growth was monitored once per hour for 24 hours after 30 sec linear shaking (Eon+Biostack 4, Biotek) under anaerobic conditions. Growth curves were converted into normalized AUCs as described using in-plate controls to define unperturbed growth.

[2] = system: synthetic gut commensal community of seven human gut commensals; test: Synthetic gut commensal community growth with macrolide and antidote (Example 5); format: cell-based; settings: erythromycin and azithromycin
Description: Heat maps depict area under the growth curve (AUC) of a synthetic community consisting of seven human gut commensals. Shown is the median AUC of three individual replicates. All drug concentrations are in μM.
So far, antidote effects have only been analyzed in single or pure cultures. However, the human gut microbiome is a complex community of many different bacterial taxa that is usually not adequately mimicked in monocultures.

Staphylococcus aureus = test: Checkerboard assays for pathogens under aerobic conditions; format: cell-based; settings: for effect on the potency of erythromycin: Staphylococcus aureus, aerobic
Method: (§2) Checkerboard assays for pathogens under aerobic conditions: For three pathogens (S. aureus Newman ATCC 13420, S. aureus subsp. aureus Rosenbach 1884 DSM20231 and E. faecium ATCC19434) 8×8 checkerboard assays were performed in transparent 384 well plates (Greiner BioOne GmbH), with each well containing 30 μl (50 μl for S. pneumoniae) in total. S. aureus strains were grown in tryptic soy broth, E. faecium in BHI medium. Antagonistic drug concentrations were 2-fold distant. Cell were inoculated at initial OD595 nm 0.01 from an overnight culture. Plates were sealed with breathable membranes (Breathe-Easy), incubated at 37° C. (Cytomat 2, Thermo Scientific) with continuous shaking and OD595 nm was measured every 30 minutes for 16 hours in a Filtermax F5 multimode plate reader (Molecular Devices). Growth was evaluated at the transition to stationary phase (9 hours for S. aureus, 12 hours for E. faecium). All experiments were done at least in 2 biological replicates and 2 technical replicates. For S. pneumoniae […], the inventors only tested concentration gradients of the potential antagonists in constant concentration of the antibiotics in BHI medium.

[3] = system: species of the order Bacteroidales; test: Antidote vs azithromycin across seven gut Bacteroidales (Example 4); format: cell-based; settings: combination with azithromycin
Method: The antidotes dicumarol (first column), benzbromarone (second column) and tolfenamic acid (third column) were tested for their efficacy in antagonizing the macrolide antibiotic azithromycin across seven prevalent and abundant gut Bacteroidales (B. vulgatus, B. fragilis NT, B. thetaiotaomicron, P. copri, B. caccae, B. ovatus, P. distasonis). […] All drug concentrations are in μM.
In particular, they aimed at testing, whether these antidotes can also protect from other macrolides such as azithromycin, a clinically more relevant antibiotic.

B. vulgatus [4] = test: Prestwick library screen for microbiome-protective antibiotic antagonists (growth AUC z-scores); format: cell-based, Bacteroides vulgatus; settings: z-score of normalized growth AUC, two replicates
Streptococcus pneumoniae = test: Antagonist concentration gradients at constant antibiotic concentration, aerobic; format: cell-based
Method: as §2

B. vulgatus [5] = test: Validation of microbiome-protective antagonists (concentration-dependent growth rescue); format: cell-based, Bacteroides vulgatus; settings: antagonist gradient, normalized AUC >0.25 = growth rescue
Method: Validation of microbiome-protective antagonists: In a first step, the inventors kept the erythromycin/doxycycline concentration constant (0.625 μM for erythromycin, 0.078 μM (B. vulgates)/0.039 μM (B. uniformis) for doxycycline) and tested concentration gradients of the potential antagonists with ranges depending on the antagonist's solubility. Compounds were purchased from independent vendors and dissolved at 100× starting concentration in DMSO. Eight 2-fold serial dilutions were prepared in 96-well plates with each row containing a different antagonist, sufficient control DMSO wells and wells with just the respective antibiotic (‘antibiotic-only’ control). These master plates were diluted in MGAM medium (50 μl) to 2×assay concentration and 25 μl freshly prepared antibiotic solution (4× test concentration) was added. Plates were pre-reduced overnight in an anaerobic chamber and inoculated with 25 μl of overnight cultures (prepared as described under “Growth conditions”) to reach a starting OD578 of 0.01 and 1% DMSO concentration. Growth was monitored hourly for 24 h after 30 sec of linear shaking. Experiments were performed in biological triplicates. For analysis, growth curves were converted into normalized AUCs (see above). The inventors accounted for residual growth in the presence of the antibiotic by subtracting the median normalized AUCs of the ‘antibiotic-only’ control per plate.

[6] = system: abundant gut commensal species; test: Checkerboard assays on further abundant gut commensals; format: cell-based; settings: for tested abundant gut commensal species whose growth is rescued: antidote 5-40 μm, clinically relevant erythromycin concentrations; for counteracting erythromycin on other abundant gut commensals: checkerboard with erythromycin
Description: as §1

E. faecium [7] = test: Antidote with macrolide on enterococci (Example 6); format: cell-based
E. faecalis [8] = test: Antidote with macrolide on enterococci (Example 6); format: cell-based, Enterococcus faecalis
Description: Heat maps show median area under the growth curve (AUC) of three biologically independent replicates. […] All drug concentrations are in μM.
Here, the inventors expanded testing towards additional antidotes, and included the intestinal human pathogen Enterococcus faecalis.

[9] = system: seven-member synthetic community including the pathogen E. faecalis; test: E. faecalis-containing synthetic community, community growth AUC (Example 7); format: cell-based
Description: (§3) Heat maps show median area under the growth curve (AUC) of the seven-member synthetic community including the pathogen E. faecalis. The numbers within the heat map represent the total number of all E. faecalis viable cells for each erythromycin-antidote combination as determined by enumerating of E. faecalis colony forming units after plating on selective medium. All drug concentrations are in μM. n. d.=not detectable.
(§4) The inventors exposed synthetic communities that contained the intestinal gut pathogen E. faecalis to erythromycin, and evaluated rescue of gut commensals and simultaneous killing of the pathogen in the presence of antidotes.

E. faecalis [10] = test: E. faecalis-containing synthetic community, E. faecalis CFU on selective medium (Example 7); format: cell-based, Enterococcus faecalis
Description: as §3, §4

E. faecium [11] = test: Checkerboard assays for pathogens under aerobic conditions; format: cell-based
Method: as §2

B. vulgatus [12] = test: Growth curves and time-lapse microscopy under erythromycin; format: cell-based, Bacteroides vulgatus; settings: 15 μg/ml erythromycin (5-fold MIC), time-lapse microscopy
Method: (§5) Microscopy: For live/dead imaging, stained cells were washed twice in 0.85% NaCl before being spotted on 0.85% NaCl+1% agarose pads between a glass slide and a coverslip. For time-lapse imaging, cells were precultured as described in the growth conditions section. […] Slides were sealed with valap and taken outside of the chamber for imaging. The imaging was performed using a Nikon Eclipse Ti inverted microscope, equipped with a Nikon DS-Qi2 camera, a Nikon Plan Apo Lambda 60× oil Ph3 DM phase contrast objective and a Nikon HC mCherry filter set (Ex 562/40; DM 593; BA 641/75) to detect propidium iodide fluorescence. Images were acquired with the NIS-Elements AR4.50.00 software and processed with Fiji v.2.0.0-rc-68/1.52 h.
(§6) Growth curves: Cells were precultured as described in the growth conditions section. Then, cells were diluted to an OD578=0.01 in a 96-well plate sealed with a breathable membrane (Breathe-Easy®) and grown for 2 h. Next, erythromycin was added to the culture to a final concentration of 15 μg/ml (5-fold MIC) and growth curves were acquired for 20 h using a microplate spectrophotometer (EON, Biotek) by measuring the OD578 every hour after 30 sec of linear shaking.

Staphylococcus = settings: cited from earlier work
S. pneumoniae = settings: cited from earlier work
B. uniformis = test: Growth curves and time-lapse microscopy under erythromycin; format: cell-based, Bacteroides uniformis; settings: 15 μg/ml erythromycin (5-fold MIC), time-lapse microscopy
Method: as §5, §6

[13] = system: Streptococcus groups A, B, C & G; settings: cited from earlier work
[14] = Erythromycin 0.625 μM + 20 μM drug
[15] = erythromycin 1.15 μM + 40 μM dicumarol or 20 μM benzbromarone

Row | Compound | rescue of B. vulgatus growth from erythromycin (B. vulgatus [1]) | protection (growth rescue) of synthetic gut commensal community from macrolide antibiotics [2] | effect on the potency of erythromycin (Staphylococcus aureus) | protection of Bacteroidales species from azithromycin [3] | Mean z-score (B. vulgatus [4]; [14]) | effect on the potency of erythromycin (Streptococcus pneumoniae) | Validation (B. vulgatus [5]; Erythromycin 0.625 μM constant) | tested abundant gut commensal species whose growth is rescued [6] | counteracting erythromycin on other abundant gut commensals [6] | rescue from erythromycin or azithromycin treatment (E. faecium [7]) | rescue from erythromycin or azithromycin treatment (E. faecalis [8]) | also measured
1 | O=c1oc2ccccc2c(O)c1Cc1c(O)c2ccccc2oc1=O [Dicumarol, 3,3′-Methylene-bis(4-hydroxycoumarin)] | rescued; also recorded: can rescue the growth | can be Protected | did not affect the potency | can be Protected | 7.313 | did not affect the potency | TRUE | 5/7 | able to counteract erythromycin on several species | Neither dicumarol nor benzbromarone or tolfenamic acid could rescue | Neither dicumarol nor benzbromarone or tolfenamic acid could rescue | community growth (AUC) [9, 15]: the community is rescued; rescue of the community despite erythromycin treatment ([9]; erythromycin + antidote): rescue of the community; E. faecalis counts (E. faecalis [10]; [15]): drop/are still found at below the detection limit; E. faecalis cells in community under erythromycin + antidote (E. faecalis [10]; erythromycin + antidote): efficiently inhibited
2 | Cc1c(Cl)cccc1Nc1ccccc1C(=O)O [Tolfenamic acid] | able to protect; also recorded: can rescue the growth | can be Protected | did not affect the potency | can be Protected | 7.381 | did not affect the potency | TRUE | 5/7 | able to counteract erythromycin on several species | Neither dicumarol nor benzbromarone or tolfenamic acid could rescue | Neither dicumarol nor benzbromarone or tolfenamic acid could rescue | rescue of B. vulgatus growth from doxycycline (B. vulgatus [1]; combination with doxycycline): able to protect; drug interaction with erythromycin in checkerboard (E. faecium [11]): neutral interactions; drug interaction with erythromycin in checkerboard (Staphylococcus aureus; S. aureus, aerobic conditions): neutral interactions; Mean z-score (B. vulgatus [4]; Doxycycline 0.08 μM + 20 μM drug): 4.000; Validation (B. vulgatus [5]; Doxycycline 0.078 μM constant): TRUE; interaction with antibacterial effects of erythromycin/azithromycin (E. faecium [7]): synergized; interaction with antibacterial effects of erythromycin/azithromycin (E. faecalis [8]): synergized
3 | CC[C@H]1OC(=O)[C@H](C)[C@@H](O[C@H]2C[C@@](C)(OC)[C@@H](O)[C@H](C)O2)[C@H](C)[C@@H](O[C@@H]2O[C@H](C)C[C@H](N(C)C)[C@H]2O)[C@](C)(O)C[C@@H](C)C(=O)[C@H](C)[C@@H](O)[C@]1(C)O [Erythromycin, erythromycin] | – | – | – | – | – | – | – | – | – | – | – | cell morphology / lysis (B. vulgatus [12]): cell shape defects, including blebbing, cytoplasmic shrinkage, and ultimately cell lysis; MIC breakpoint (Staphylococcus): 1 µg/mL (≈ 1.36 µM); MIC breakpoint (S. pneumoniae): 0.25 µg/mL (≈ 0.341 µM); cell morphology / lysis (B. uniformis): cell shape defects, including blebbing, cytoplasmic shrinkage, and ultimately cell lysis; MIC breakpoint [13]: 0.25 µg/mL (≈ 0.341 µM); community growth (AUC) ([9]; erythromycin 1.15 μM alone): partially inhibited; E. faecalis cells in the community (E. faecalis [10]; erythromycin 1.15 μM alone): ~9×10^5 cells
